Data: BindingDB's records for patent US10626113 (Columbia University, 2020)

Target: cGMP-specific 3',5'-cyclic phosphodiesterase (Homo sapiens, UniProt O76074)
Assay: PDE5 Inhibition Assay
Experimental: Test compounds were supplied as liquid solutions of 10 mM concentration in DMSO. Sildenafil, used as a standard was dissolved in DMSO. […] 0.1 ng of enzyme was used per reaction, and the substrate was 100 nM FAM-cGMP.Assay conditions: A series of dilutions of the test compounds were prepared with 10% DMSO in assay buffer and 5 μl of the dilution was added to a 50 μl reaction so that the final concentration of DMSO is 1% in all of reactions. The enzymatic reactions were conducted at room temperature for 60 minutes in a 50 μl mixture containing PDE assay buffer, 100 nM FAM-cAMP or 100 nM FAM-cGMP, a PDE enzyme, and the test compound. After the enzymatic reaction, 100 μl of a binding solution (1:100 dilution of the binding agent with the binding agent diluent) was added to each reaction and the reaction was performed at room temperature for 60 minutes. […] Fluorescence intensity is converted to fluorescence polarization using the Tecan Magellan6 software. The fluorescence polarization data were analyzed using the computer software, Graphpad Prism. The fluorescence polarization (FPt) in absence of the compound in each data set was defined as 100% activity. In the absence of PDE and the compound, the value of fluorescent polarization (FPb) in each data set was defined as 0% activity. The percent activity in the presence of the compound was calculated according to the following equation: % activity=(FP−FPb)/(FPt−FPb)×100%, where FP=the fluorescence polarization in the presence of the compound.

**Q.** For `COc1ccc(Nc2c3c(nc4ccc(C#N)cc24)CCN(C(C)=O)C3)cc1Cl` [US10899756, Compound S], which IC50 is on record?
**A.** Its IC50 is 593 nM.

**Q.** How did the IC50 turn out when `COc1cc(Nc2c3c(nc4ccc(C#N)cc24)CCN(C(C)=O)C3)ccc1Cl` [US10899756, Compound T] was run?
**A.** Its IC50 is 425 nM.

**Q.** With `COc1ccc(C(C)Nc2c3c(nc4ccc(C#N)cc24)CCN(C(C)=O)C3)cc1Cl` (centres undefined) [US10899756, Compound V] as the compound, how does the IC50 read?
**A.** Its IC50 is 26.9 nM.

**Q.** With `COc1ccc(CCNc2c3c(nc4ccc(C#N)cc24)CCN(C(C)=O)C3)cc1Cl` [US10899756, Compound W] as the compound, how does the IC50 read?
**A.** Its IC50 is 10.6 nM.
